Consider six compounds from article PMC12030355 (Pharmaceuticals, 2025).

A short description of this data set: in vitro. Further details: MTT cytotoxicity assay, absorbance 450 nm, normal cell line. Particulars: human, wi-38 cells; read-out: Cytotoxicity IC50 uM WI38. As to the method:
3.2.3. […] The remaining substances and tools were from either Sigma or Invitrogen. Before performing the MTT experiment, cells were seeded on a 96-well plate at a density of 1.2–1.8 10,000 cells/well in a volume of 100 μL complete growth media + 100 μL of the test substance each well. Multiwell plates are an excellent choice for using the MTT method, which is used to track in vitro cytotoxicity. Using cells in the log phase of growth and keeping the ultimate cell density around 10^6 cells/cm^2 will produce the best results. Every test should include a blank with a full medium but no cells. Cultures should be moved from the incubator into a sterile workspace, such as a laminar flow hood. Each MTT [M-5655] vial should be reconstituted with 3 mL of medium or balanced salt solution devoid of phenol red and serum. 10% of the volume of the culture medium should be added to the reconstituted MTT solution. Incubate cultures again for 2–4 h, depending on the type of cell and the maximal cell density. […] After the incubation period, remove the cultures from the incubator and apply MTT Solubilization Solution [M-8910] in a quantity equal to the volume of the original culture media to dissolve the formazan crystals that formed. In a gyratory shaker, gentle blending will improve solubility. Trituration, or pipetting up and down, may occasionally be necessary to completely dissolve the MTT formazan crystals, especially in thick cultures at a wavelength of 450 nm, and measure the absorbance spectrophotometrically. The background absorbance of multiwell plates at 690 nm were subtracted from 450 nm data. A suitable plate 7. Incubate cultures at 37°C for 24 hrs. 8-After treatment of cells with the serial concentrations of the compound to be tested incubation is carried out for 48 h at 37 °C ,then the plates are to be examined under the inverted microscope and proceed for the MTT assay MTT – Cytotoxicity assay protocol The MTT method of monitoring in vitro cytotoxicity is well suited for use with multiwell plates. For best results, cells in the log phase of growth should be employed and final cell number should not exceed 10^6 cells/cm2. Each test should include a blank containing complete medium without cells. 1. Remove cultures from incubator into laminar flow hood or other sterile work area.

On to `CCn1cc(-c2nc3ccccc3s2)c(=O)c2cc(F)c(N3CCNCC3)cc21` [compound 15, 3-(Benzo[d]thiazol-2-yl)-1-ethyl-6-fluoro-7-(piperazin-1-yl)quinolin-4(1H)-one], for which the CC50 at 48 h is 39.2 µM.
Consider `CCn1cc(C(=O)O)c(=O)c2cc(F)c(N3CCN(C(=O)CC#N)CC3)cc21` [compound 6], for which the CC50 at 48 h is 34.1 µM.
To `CCn1cc(-c2nc3ccccc3s2)c(=O)c2cc(F)c(N3CCN(C(=O)CCl)CC3)cc21` [compound 16, 3-(Benzo[d]thiazol-2-yl)-7-(4-(2-chloroacetyl)piperazin-1-yl)-1-ethyl-6-fluoroquinolin-4(1H)-one] belongs 51.2 µM.
For `CCn1cc(C(=O)O)c(=O)c2cc(F)c(N3CCNCC3)cc21` [compound 1, norfloxacin], the CC50 at 48 h was found to be 54.6 µM.
To `COc1cccc2c1C(=O)c1c(O)c3c(c(O)c1C2=O)C[C@@](O)(C(=O)CO)C[C@@H]3O[C@H]1C[C@H](N)[C@H](O)[C@H](C)O1` [Doxorubicin] belongs 14.1 µM; to `CCOC(=O)N1CCN(c2cc3c(cc2F)c(=O)c(C(=O)O)cn3CC)CC1` [compound 7, 7-(4-(Ethoxycarbonyl)piperazin-1-yl)-1-ethyl-6-fluoro-4-oxo-1,4-dihydroquinolin-3-carboxylic acid], 47.9 µM.
